According to patent US20060069132A1, “Azolecarboxamide herbicides” (priority 2004, published 2006):

Key:
barnyardgrass [1] = experiment: Test B pre-/postemergence herbicide test; assay type: in vivo, Echinochloa crus-galli; conditions: for Barnyardgrass plant response rating: scale 0 (no effect) to 100 (complete control)
In short: (§1)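 Flooded paddy rice and barnyardgrass were treated at the 2-leaf stage; upland plantings received compound either on sown seed or on 1- to 4-leaf seedlings. All were kept 13–15 days in a greenhouse and scored visually, 0–100, relative to untreated plants.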

Surinam grass = experiment: Test B pre-/postemergence herbicide test; assay type: in vivo, Urochloa decumbens; conditions: for Surinam Grass plant response rating: scale 0 (no effect) to 100 (complete control)
In short: (§2)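 Herbicidal effect was judged by eye on a 0–100 scale after plants stood 13 to 15 days in the greenhouse following pre- or postemergence treatment with surfactant-containing formulations.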

cocklebur = experiment: Test B pre-/postemergence herbicide test; assay type: in vivo, Xanthium strumarium; conditions: for Cocklebur plant response rating: scale 0 (no effect) to 100 (complete control)
In short: as §1

corn = experiment: Test B pre-/postemergence herbicide test; assay type: in vivo, Zea mays; conditions: for Corn plant response rating: scale 0 (no effect) to 100 (complete control)
In short: as §2

large crabgrass = experiment: Test B pre-/postemergence herbicide test; assay type: in vivo, Digitaria sanguinalis; conditions: for Crabgrass, Large plant response rating: scale 0 (no effect) to 100 (complete control)
In short: as §2

giant foxtail = experiment: Test B pre-/postemergence herbicide test; assay type: in vivo, Setaria faberi; conditions: for Foxtail, Giant plant response rating: scale 0 (no effect) to 100 (complete control)
In short: as §2

lambsquarters = experiment: Test B pre-/postemergence herbicide test; assay type: in vivo, Chenopodium album; conditions: for Lambsquarters plant response rating: scale 0 (no effect) to 100 (complete control)
In short: as §2

morningglory = experiment: Test B pre-/postemergence herbicide test; assay type: in vivo, Ipomoea coccinea; conditions: for Morningglory plant response rating: scale 0 (no effect) to 100 (complete control)
In short: as §1

pigweed = experiment: Test B pre-/postemergence herbicide test; assay type: in vivo, Amaranthus retroflexus; conditions: for Pigweed plant response rating: scale 0 (no effect) to 100 (complete control)
In short: as §2

velvetleaf = experiment: Test B pre-/postemergence herbicide test; assay type: in vivo, Abutilon theophrasti; conditions: for Velvetleaf plant response rating: scale 0 (no effect) to 100 (complete control)
In short: as §2

blackgrass = experiment: Test B postemergence herbicide test; assay type: in vivo, Alopecurus myosuroides; conditions: scale 0 (no effect) to 100 (complete control)
In short: (§3)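 After treating 2-leaf paddy plants or 2–18 cm postemergence plants (1 to 4 leaves) with formulated chemical, researchers kept them in a greenhouse for 13–15 days. Effects were judged visually versus controls: 0 indicates none, 100 total control.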

wheat = experiment: Test B postemergence herbicide test; assay type: in vivo, Triticum aestivum; parameters: key to Wheat plant response rating: 0 = no effect, 100 = complete control
In short: (§4)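 Visual ratings, 0 (no effect) to 100 (complete control), made versus controls after 13–15 d greenhouse. Paddy plants treated at 2-leaf stage; postemergence plants at 1- to 4-leaf stage, 2–18 cm tall.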

wild oat = experiment: Test B postemergence herbicide test; assay type: in vivo, Avena fatua; conditions: scale 0 (no effect) to 100 (complete control)
In short: as §4

rice [2] = experiment: Test B flooded paddy test; assay type: in vivo, Oryza sativa; conditions: 1000 g ai/ha, scale 0 to 100 (0 no effect, 100 complete control)
In short: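 Treated at 2-leaf (paddy) or 1–4-leaf, 2–18 cm (postemergence); greenhouse 13–15 d; visual score vs control, 0 none to 100 complete control; dash = not tested.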

[3] = tested on: small flower umbrella sedge; experiment: Test B flooded paddy test; assay type: in vivo, Cyperus difformis; conditions: 1000 g ai/ha, scale 0 to 100 (0 no effect, 100 complete control)
In short: as §3

ducksalad [4] = experiment: Test B flooded paddy test; assay type: in vivo, Heteranthera limosa; conditions: 1000 g ai/ha, scale 0 to 100 (0 no effect, 100 complete control)
In short: as §3

barnyardgrass [5] = experiment: Test B flooded paddy test; assay type: in vivo, Echinochloa crus-galli; conditions: 1000 g ai/ha, scale 0 to 100 (0 no effect, 100 complete control)
In short: as §3

rice [6] = experiment: Test C flooded paddy test; assay type: in vivo, Oryza sativa
In short: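 Postemergence sprays applied to plants 2 to 18 cm tall (1- to 4-leaf stage); paddy species grown to 2-leaf stage under flooding. After 12 to 14 days in greenhouse, visual rating versus untreated controls on 0–100 scale (0 no effect, 100 complete control).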

[7] = tested on: smallflower umbrella sedge; experiment: Test C flooded paddy test; assay type: in vivo, Cyperus difformis
ducksalad [8] = experiment: Test C flooded paddy test; assay type: in vivo, Heteranthera limosa
barnyardgrass [9] = experiment: Test C flooded paddy test; assay type: in vivo, Echinochloa crus-galli
In short: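 Injury scored visually against controls on a 0 (no effect) to 100 (complete control) scale, 12 to 14 days after treatment in greenhouse. Flooded paddy plants treated at 2-leaf stage; postemergence plants at 1- to 4-leaf stage, 2 to 18 cm tall.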

[10] = 125 g ai/ha, 0 is no effect, 100 is complete control, preemergence
[11] = 125 g ai/ha, visual rating, postemergence
[12] = 125 g ai/ha, scale 0 to 100 (0 no effect, 100 complete control)
[13] = 250 g ai/ha, scale of 0 to 100, 0 is no effect, 100 is complete control
[14] = 500 g ai/ha, visual rating after 12 to 14 days, scale 0 to 100 (0 no effect, 100 complete control)

Cc1nn(C(C)C)nc1C(=O)Nc1cccc(C(=O)N(C)C)c1 [Compound 404]
90: Plant response rating (0 to 100 scale), Lambsquarters (lambsquarters; [10]) | Sedge, Umbrella plant response rating [3] | Ducksalad plant response rating (ducksalad [4]) | Barnyardgrass plant response rating (barnyardgrass [5])
10: Barnyardgrass plant response rating (barnyardgrass [1]; [11]) | Barnyardgrass plant response rating (barnyardgrass [1]; Postemergence, 500 g ai/ha) | Surinam Grass plant response rating (Surinam grass; Postemergence, 500 g ai/ha) | Cocklebur plant response rating (cocklebur; [11]) | Corn plant response rating (corn; Postemergence, 500 g ai/ha) | Crabgrass, Large plant response rating (large crabgrass; Postemergence, 500 g ai/ha) | Foxtail, Giant plant response rating (giant foxtail; [11]) | Pigweed plant response rating (pigweed; [11]) | Blackgrass plant response rating (blackgrass; [11]) | Oat, Wild plant response rating (wild oat; Postemergence, 500 g ai/ha) | Ducksalad plant response rating (ducksalad [8]; 62 g ai/ha, scale 0 to 100) | Ducksalad plant response rating (ducksalad [8]; [12])
70: Plant response rating (0 to 100 scale), Barnyardgrass (barnyardgrass [1]; [10]) | Plant response rating (0 to 100 scale), Crabgrass, Large (large crabgrass; [10]) | Morningglory plant response rating (morningglory; Postemergence, 500 g ai/ha) | Plant response rating (0 to 100 scale), Pigweed (pigweed; [10]) | Sedge, Umbrella plant response rating ([7]; 62 g ai/ha, scale 0 to 100)
40: Plant response rating (0 to 100 scale), Surinam Grass (Surinam grass; [10]) | Plant response rating (0 to 100 scale), Cocklebur (cocklebur; [10]) | Foxtail, Giant plant response rating (giant foxtail; Postemergence, 500 g ai/ha)
75: Sedge, Umbrella plant response rating [7, 12]
50: Plant response rating, Rice (rice [6]; [14])
30: Cocklebur plant response rating (cocklebur; Postemergence, 500 g ai/ha) | Plant response rating (0 to 100 scale), Foxtail, Giant (giant foxtail; [10]) | Pigweed plant response rating (pigweed; Postemergence, 500 g ai/ha) | Velvetleaf plant response rating (velvetleaf; [11]) | Velvetleaf plant response rating (velvetleaf; Postemergence, 500 g ai/ha) | Blackgrass plant response rating (blackgrass; Postemergence, 500 g ai/ha) | Plant response rating, Ducksalad (ducksalad [8]; [14]) | Plant response rating, Barnyardgrass (barnyardgrass [9]; [14])
60: Lambsquarters plant response rating (lambsquarters; [11]) | Plant response rating (0 to 100 scale), Morningglory (morningglory; [10]) | Rice plant response rating (rice [2])
45: Rice plant response rating (rice [6]; [13])
80: Lambsquarters plant response rating (lambsquarters; Postemergence, 500 g ai/ha) | Sedge, Umbrella plant response rating [7, 13]
0: Surinam Grass plant response rating (Surinam grass; [11]) | Plant response rating (0 to 100 scale), Corn (corn; [10]) | Corn plant response rating (corn; [11]) | Crabgrass, Large plant response rating (large crabgrass; [11]) | Wheat plant response rating (wheat; 125 g ai/ha, visual rating, scale 0 (no effect) to 100 (complete control), postemergence) | Wheat plant response rating (wheat; Postemergence, 500 g ai/ha, scale 0 (no effect) to 100 (complete control)) | Oat, Wild plant response rating (wild oat; [11]) | Rice plant response rating (rice [6]; 62 g ai/ha, scale 0 to 100) | Rice plant response rating (rice [6]; [12]) | Barnyardgrass plant response rating (barnyardgrass [9]; 62 g ai/ha, scale 0 to 100 (0 no effect, 100 complete control)) | Barnyardgrass plant response rating (barnyardgrass [9]; [12])
20: Morningglory plant response rating (morningglory; [11]) | Plant response rating (0 to 100 scale), Velvetleaf (velvetleaf; [10]) | Ducksalad plant response rating (ducksalad [8]; [13]) | Barnyardgrass plant response rating (barnyardgrass [9]; [13])
100: Wheat plant response rating (wheat; 500 g ai/ha, scale 0 to 100, 0 no effect, 100 complete control, preemergence)
85: Plant response rating, Sedge, Umbrella [7, 14]
